# Laboratory results as given in US10736968B2, “Cellular signalling inhibitors, their formulations and methods thereof” (INVICTUS ONCOLOGY PVT. LTD., priority 2016, dated 2020).
# How the values were obtained:
# CSF1R = target: T1, CSF1R (Mus musculus, UniProt P09581); assay: CSF1R phosphorylation in RAW264.7 cells after CSF-1 stimulation (Western blot); format: cell-based; conditions: 67 nM, different time points, then CSF1 10 ng/ml for 20 min
# T1 construct: endogenous in cells
# T1 sequence (P09581 20-977): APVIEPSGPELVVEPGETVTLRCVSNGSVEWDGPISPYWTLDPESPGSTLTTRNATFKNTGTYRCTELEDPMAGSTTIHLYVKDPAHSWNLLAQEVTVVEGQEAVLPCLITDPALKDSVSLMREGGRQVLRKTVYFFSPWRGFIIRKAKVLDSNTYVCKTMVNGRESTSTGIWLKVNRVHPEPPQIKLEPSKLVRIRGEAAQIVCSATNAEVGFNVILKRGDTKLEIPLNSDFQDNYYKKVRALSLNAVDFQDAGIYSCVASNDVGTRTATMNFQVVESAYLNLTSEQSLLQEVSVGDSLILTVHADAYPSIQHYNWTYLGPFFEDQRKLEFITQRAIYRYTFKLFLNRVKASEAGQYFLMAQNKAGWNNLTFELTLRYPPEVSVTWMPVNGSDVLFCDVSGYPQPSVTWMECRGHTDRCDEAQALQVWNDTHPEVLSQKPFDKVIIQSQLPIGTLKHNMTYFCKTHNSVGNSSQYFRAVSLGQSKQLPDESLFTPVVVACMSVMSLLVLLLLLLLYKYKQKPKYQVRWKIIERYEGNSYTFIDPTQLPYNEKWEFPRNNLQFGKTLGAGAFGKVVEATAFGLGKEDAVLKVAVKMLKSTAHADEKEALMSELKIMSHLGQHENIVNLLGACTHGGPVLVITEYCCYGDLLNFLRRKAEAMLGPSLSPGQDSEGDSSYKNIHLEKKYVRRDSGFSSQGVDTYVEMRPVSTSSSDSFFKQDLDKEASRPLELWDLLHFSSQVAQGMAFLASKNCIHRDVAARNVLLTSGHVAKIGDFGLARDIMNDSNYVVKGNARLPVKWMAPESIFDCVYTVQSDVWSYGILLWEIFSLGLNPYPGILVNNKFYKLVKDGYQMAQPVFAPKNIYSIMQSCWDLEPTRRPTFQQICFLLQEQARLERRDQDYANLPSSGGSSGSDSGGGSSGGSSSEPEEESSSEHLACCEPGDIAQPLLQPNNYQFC
# Description: FIG. 2. (a) Expression of phospho-CSF1R in RAW264.7 cells at different time points post-treatment with mCSF. (b-c) Treatment with either BLZ-945 (a current gold standard small molecule inhibitor of CSF1R) or AK750 (the formulated form of BLN101) across different time points followed by CSF-1 (10 ng/mL) stimulation for 20 minutes. After stimulation the cells were washed with cold PBS and the cell lysates were collected.
# Activity Studies of Compound of Formula I • Efficacy of BLN101 vs BLZ945 on the ability to inhibit CSF1R in vitro is studied. RAW264.7 cells are treated with BLZ945 (67 nM) or BLN101 (67 nM) for different time points, at the end of which the cells were exposed to CSF1 (10 ng/ml) for 20 min. The cells were then lysed and analyzed for phosphorylated CSF1R levels. […] Efficacy of BLN101 (in formulation AK750) vs BLZ945 on increase in iNOS expression in vitro is studied. It is observed that exposure to Tumor Conditioned Media over 24 h decreases INOS levels. Measurement of the expression of iNOS in RAW264.7 cells at different time points after treatment with B-16-tumour conditioned media followed by BLZ-945 or BLN101 (as AK750 formulation) treatment across different time points. […] At different time-points, the cells are harvested and analyzed the population for M1 (MHCII+, CD86+, CD80+) or M2 (CD206+) markers using fluorescence activated cell sorting (FIG. 5d). […]
# AKT-mTOR-p70S6K pathway = assay: Downstream signaling in macrophages after drug washout and MCSF exposure (Western blot); format: cell-based; conditions: 4 hours drug, washout 7 h or 48 h, MCSF 2 h
SMILES,inhibition of CSF1R (phosphorylated CSF1R levels) (CSF1R),inhibition of CSF1R (phosphorylated CSF1R levels) (CSF1R; listed as BLZ101),AKT-mTOR-p70S6K downstream signaling (AKT-mTOR-p70S6K pathway)
CNC(=O)c1cc(Oc2ccc3nc(NC4CCCC[C@H]4OC(=O)CCC(=O)O[C@H]4CC[C@@]5(C)C(=CC[C@H]6[C@@H]7CC[C@H](C(C)CCCC(C)C)[C@@]7(C)CC[C@@H]65)C4)sc3c2)ccn1 (stereo in doubt) [BLN101],sustained and statistically significantly greater inhibition of CSF1R as compared with BLZ945,potent inhibitor of CSF1R,
CNC(=O)c1cc(Oc2ccc3nc(N[C@@H]4CCCC[C@H]4O)sc3c2)ccn1 [BLZ-945],,,not by BLZ945 and PLX3397
